Patent US20050176813A1, “Novel chalcone derivatives and uses thereof” (priority 2002, published 2005)
Where two headings read alike, the source gives them in different places.

Experiments:
[1] = test system: human peripheral blood lymphocytes; experiment: Proliferation test, [3H]-thymidine incorporation assay, anti-CD3 stimulated; format: cell-based; conditions: for EC50: Homo sapiens, Lymphocyte, anti-CD3 stimulation, 48 h, read-out: EC50, suppression of proliferation of human peripheral blood lymphocytes
Method: Proliferation Test [^3H]-Thymidine Incorporation Assay
Resting peripheral blood mononuclear cells from healthy volunteers were seeded at 2×10^5 cells per well in medium (RPMI 1640 supplemented 10% fetal calf serum, 2 mM glutamine, 1 mM sodium pyruvate, 1% nonessential amino acids, 100 units/ml penicillin, 100 μg/ml streptomycin and 50 μM β-mercaptoethanol) in flat-bottom 96 well plates (final volume 200 μl). Cells pre-incubated with drug (60 min), were stimulated with 5 ng/ml anti-CD3 Ab) for 48 h. [^3H]-Thymidine (1 μCi per well) was added for the last 6 h. Cells were harvested onto glass fibre filters and radioactivity measured in a scintillation counter. All experiments were done in triplicate. Results are reported as normalised for maximum [^3H]-thymidine incorporation for controls.

[2] = Cytotoxicity in vitro (remark in Table 1, summary of Table 2); format: cell-based; conditions: MEL and Jurkat cells, Table 2
Method: (§1) Jurkat E6-1 and MEL were seeded at 5×10^5 cells/ml in twelve-well plates. Drug (100 nM, 1 μM, 2.5 μM and 10 μM) was added in a final DMSO concentration of 0.1%. After 48 h of incubation, cells were harvested by sucking them off the plates. Cells were centrifuged, resuspended in 0.5 ml PBS containing 1 μg/ml propidium iodide (PI), and red fluorescence measured on a FACScan flow cytometer (Becton Dickinson) after 20 min (10^4 cells of every sample being analyzed). The percentage of dead cells was determined by their PI uptake. Incubation with 20% DMSO served as a control for setting the gates of the flow cytometer for dead cells.

Kv1.7 = Kv1.7 (Homo sapiens, UniProt Q96RP8); experiment: Kv1.7 channel block, estimated Kd (Table 1); format: binding
Kv1.3 [3] = target: T1, Kv1.3 (Homo sapiens, UniProt P22001); experiment: Kv1.3 channel block, estimated Kd (Table 1); format: binding
Kv1.5 = Kv1.5 (Homo sapiens, UniProt P22460); experiment: Kv1.5 channel block, estimated Kd (Table 1); format: binding
MEL cells = experiment: Flow cytometric measurement of cell viability (PI uptake), MEL cells; format: cell-based; conditions: 48 h
Method: (§2) Flow Cytometric Measurement of Cell Viability
as §1

mice = experiment: Toxicity on intravenous injection into mice; format: in vivo
Jurkat E6-1 = experiment: Flow cytometric measurement of cell viability (PI uptake), Jurkat T-cells; format: cell-based; conditions: 48 h
Method: as §2, §1

Kv1.1 = Kv1.1 (Homo sapiens, UniProt Q09470); experiment: Kv1.1 channel block, estimated Kd (Table 1); format: binding
Kv1.3 [4] = target: T1, Kv1.3; conditions: cited from earlier work
IK = IK (Homo sapiens, UniProt O15554); experiment: IK channel inhibition (Table 1); format: binding; conditions: at 20 μM
[5] = Kv1.3, end, read-out: Est. Kd, Kd end
[6] = Kv1.3, peak, read-out: Est. Kd, Kd peak
[7] = Kv1.1, area, read-out: Est. Kd, Kd area
[8] = Kv1.1, end, read-out: Est. Kd, Kd end
[9] = Kv1.1, peak, read-out: Est. Kd, Kd peak

Chain of Kv1.5 (P22460 whole entry): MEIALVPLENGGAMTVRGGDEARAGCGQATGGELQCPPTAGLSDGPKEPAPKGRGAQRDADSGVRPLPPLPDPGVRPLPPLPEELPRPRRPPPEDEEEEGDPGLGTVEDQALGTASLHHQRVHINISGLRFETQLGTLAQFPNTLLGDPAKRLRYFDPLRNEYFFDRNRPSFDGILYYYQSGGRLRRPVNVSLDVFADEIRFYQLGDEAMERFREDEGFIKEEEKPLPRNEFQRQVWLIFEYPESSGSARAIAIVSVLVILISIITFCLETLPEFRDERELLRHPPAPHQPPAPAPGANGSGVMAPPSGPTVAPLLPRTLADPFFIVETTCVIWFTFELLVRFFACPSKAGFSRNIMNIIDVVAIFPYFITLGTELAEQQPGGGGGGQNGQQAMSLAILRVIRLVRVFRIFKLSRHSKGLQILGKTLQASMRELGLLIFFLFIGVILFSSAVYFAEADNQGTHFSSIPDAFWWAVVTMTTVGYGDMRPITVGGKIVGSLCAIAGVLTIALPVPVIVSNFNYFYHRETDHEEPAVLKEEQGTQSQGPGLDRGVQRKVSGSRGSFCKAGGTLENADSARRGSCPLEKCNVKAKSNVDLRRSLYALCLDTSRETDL
T1 sequence (P22001 whole entry): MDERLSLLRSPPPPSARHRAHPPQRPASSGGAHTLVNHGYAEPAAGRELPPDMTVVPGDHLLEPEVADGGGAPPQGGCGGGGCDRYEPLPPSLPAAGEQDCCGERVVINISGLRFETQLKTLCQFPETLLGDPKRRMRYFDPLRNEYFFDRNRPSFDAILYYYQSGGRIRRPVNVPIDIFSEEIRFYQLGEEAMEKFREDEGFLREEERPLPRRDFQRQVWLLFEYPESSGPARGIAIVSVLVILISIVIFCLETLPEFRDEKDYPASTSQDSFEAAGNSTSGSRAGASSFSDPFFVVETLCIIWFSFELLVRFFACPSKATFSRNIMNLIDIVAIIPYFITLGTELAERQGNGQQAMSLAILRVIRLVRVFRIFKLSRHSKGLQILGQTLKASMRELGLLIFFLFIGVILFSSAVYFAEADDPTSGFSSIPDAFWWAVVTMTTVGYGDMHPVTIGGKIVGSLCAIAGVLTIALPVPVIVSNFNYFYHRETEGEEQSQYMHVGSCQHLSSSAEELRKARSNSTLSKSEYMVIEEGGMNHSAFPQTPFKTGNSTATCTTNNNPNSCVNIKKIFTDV
Chain of Kv1.7 (Q96RP8 whole entry): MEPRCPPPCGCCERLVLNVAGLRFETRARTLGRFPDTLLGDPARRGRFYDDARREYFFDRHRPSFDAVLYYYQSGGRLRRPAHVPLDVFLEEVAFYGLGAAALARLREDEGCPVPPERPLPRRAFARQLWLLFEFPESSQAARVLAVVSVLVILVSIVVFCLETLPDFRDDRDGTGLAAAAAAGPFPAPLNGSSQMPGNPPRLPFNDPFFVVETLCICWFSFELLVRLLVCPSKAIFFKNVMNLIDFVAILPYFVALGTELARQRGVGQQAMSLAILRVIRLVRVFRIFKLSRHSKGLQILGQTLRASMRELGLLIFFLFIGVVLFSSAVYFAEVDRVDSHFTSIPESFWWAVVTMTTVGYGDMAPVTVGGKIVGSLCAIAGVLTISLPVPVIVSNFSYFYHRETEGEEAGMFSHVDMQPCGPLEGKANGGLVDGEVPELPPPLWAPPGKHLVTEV
Chain of Kv1.1 (Q09470 whole entry): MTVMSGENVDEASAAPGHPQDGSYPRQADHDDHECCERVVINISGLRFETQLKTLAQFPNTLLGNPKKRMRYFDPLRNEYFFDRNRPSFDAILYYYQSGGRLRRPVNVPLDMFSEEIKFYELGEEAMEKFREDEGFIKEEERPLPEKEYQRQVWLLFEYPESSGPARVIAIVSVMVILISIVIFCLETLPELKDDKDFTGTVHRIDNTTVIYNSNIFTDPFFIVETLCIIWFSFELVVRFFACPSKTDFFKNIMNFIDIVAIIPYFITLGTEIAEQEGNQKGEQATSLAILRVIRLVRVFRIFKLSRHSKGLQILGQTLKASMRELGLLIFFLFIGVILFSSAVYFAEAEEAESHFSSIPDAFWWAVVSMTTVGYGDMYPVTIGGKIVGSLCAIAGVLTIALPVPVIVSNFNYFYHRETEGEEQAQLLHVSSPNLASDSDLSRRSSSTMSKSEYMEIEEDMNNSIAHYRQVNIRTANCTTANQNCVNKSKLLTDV

| SMILES | EC50 [1] | Cytotoxicity in-vitro (summary of Table 2) [2] | Kd (Kv1.3 [3]; [5]) | Kd (Kv1.3 [3]; [6]) | percentage of dead cells (PI uptake) (MEL cells; 100 nM) | percentage of dead cells (PI uptake) (MEL cells; 1 μM) | percentage of dead cells (PI uptake) (MEL cells; 2.5 μM) | percentage of dead cells (PI uptake) (MEL cells; 10 μM) | percentage of dead cells (PI uptake) (Jurkat E6-1; 100 nM) | percentage of dead cells (PI uptake) (Jurkat E6-1; 1 μM) | percentage of dead cells (PI uptake) (Jurkat E6-1; 2.5 μM) | percentage of dead cells (PI uptake) (Jurkat E6-1; 10 μM) | Kd (Kv1.1; [7]) | Kd (Kv1.1; [8]) | Kd (Kv1.1; [9]) | also measured |
| --- | --- | --- | --- | --- | --- | --- | --- | --- | --- | --- | --- | --- | --- | --- | --- | --- |
| COc1c(C(=O)/C=C/c2cccc(O)c2)c(O)c(OC)c2occc12 [Example 18] | 500 nM | non-cytotoxic | 250 nM | 5000 nM | 6.89% | 3.60% | 6.98% | 4.41% | 2.57% | 2.22% | 2.59% | 4.70% | 1700 nM | 1000 nM | 15000 nM | Antiproliferative potency compared with Example 1 ([1]; FIG. 1): even more potently antiproliferative; Kd (Kv1.7; Kv1.7, time-independent, read-out: Est. Kd): 50000 nM; Kd (Kv1.3 [3]; Kv1.3, area, read-out: Est. Kd, Kd area): 700 nM; Kd (Kv1.5; Kv1.5, end, read-out: Est. Kd, Kd end): 10000 nM; Kd (Kv1.5; Kv1.5, peak, read-out: Est. Kd, Kd peak): 16000 nM; Toxicity in mice (mice; injected intravenously, dose not stated): non-toxic |
| COc1c(C(C)=O)c(O)c(OC)c2occc12 [khellinone] |  |  |  |  |  |  |  |  |  |  |  |  |  |  |  | Blocking activity on the Kv1.3 channel (Kv1.3 [4]): blocking activity |
| COc1c(C(=O)/C=C/c2ccccc2)c(O)c(OC)c2occc12 [Example 1] | 1000 nM | non-cytotoxic | 120 nM | 750 nM | 4.95% | 6.21% | 6.70% | 5.88% | 3.02% | 1.47% | 1.78% | 8.10% | 1200 nM | 700 nM | 12000 nM | Block phasic or not (Kv1.7; Kv1.7): phasic; Kd (Kv1.7; Kv1.7, end, read-out: Est. Kd, Kd end): 5000 nM; Kd (Kv1.7; Kv1.7, peak, read-out: Est. Kd, Kd peak): 25000 nM; Kd (Kv1.3 [3]; T-lymphocytes, read-out: Kd (dissociation constant), block of Kv1.3 voltage gated potassium channel in T-lymphocytes): 400 nM; Selectivity over Kv1.5 (Kv1.5; Kv1.3 over Kv1.5): Cinnamon needles. Selectivity over Kv1.5 is 25-fold. Mp 125-126; Toxicity in mice (mice; 30 uM injected intravenously): non-toxic; IK inhibition (IK): no inhibition |
| COc1c2occc2cc2ccc(=O)oc12 [8-Methoxypsoralen] |  |  |  |  |  |  |  |  |  |  |  |  |  |  |  | Blocking activity on the Kv1.3 channel (Kv1.3 [4]; background): blocking activity |
